# Measured values as given in article PMC6222450, “Computer-Aided Studies for Novel Arylhydantoin 1,3,5-Triazine Derivatives as 5-HT6 Serotonin Receptor Ligands with Antidepressive-Like, Anxiolytic and Antiobesity Action In Vivo” (Molecules : A Journal of Synthetic Chemistry and Natural …, 2018).
# “And” between values parts separate entries of the source, which are not always exact repeats. Equal values may be shown once.
# Legend:
# Lipophilicity by RP-TLC = format: physicochemical; conditions: RP-18 TLC, water/methanol, extrapolated to 100% water
# Protocol: For comparison, the active arylmethyl-triazine compounds previously found (1–3) were also examined. Stationary phase RP-18 and mixtures of water/methanol […] as a mobile phase were employed. RM values were calculated from the RF data obtained. […] The regression coefficients (r^2) determined for all compounds were higher than 0.95. On the basis of the linear relationship between RM values and the volume fraction of methanol, values of RM0 in the systems analyzed corresponding to 100% of water were obtained by extrapolation. RM0 values received for the compounds tested ranged from 3.14 to 4.49 (Figure 6).
# The mobile phases were prepared by mixing the respective amounts of water and organic modifier (methanol) in a range from 40 to 90% (v/v) in 5% increments. TLC was performed on Silica gel 60RP-18 F254 plates (7 × 10 cm) plates (Merck, Darmstadt, Germany). Methanol was used to prepare the solutions of the substances. Solutions (10 µL) of the analyzed compounds were applied to the plates as 5 mm bands, 10 mm apart and 10 mm from the lower edge and sides of the plates, by using Linomat V applicator (Camag, Basel, Switzerland). The vertical chamber (Sigma–Aldrich, St. Louis, MI, USA), 20 × 10 × 18 cm in size, was saturated with mobile phase for 20 min. Development was carried out over 9 cm from the starting line at a temperature of 20 °C. Next, the plates were dried at room temperature, and the spots were observed under ultraviolet light at 254 nm and/or 366 nm (UV lamp, Camag, Basel, Switzerland). In each case, sharp and symmetric spots without a tendency for tailing were obtained. Each experiment was run in triplicate and mean RF (retardation factor) values were calculated.
# Starting from the RF values, the RM parameters were computed as described in the formula:RM = log(1/RF − 1)
# The linear correlations between the RM values of the substances and the concentration of methanol in mobile phases were calculated for each compound with the Soczewiński-Wachtmeister equation [22]:RM = RM0 + aC where C is the concentration of the organic modifier (in %) in the mobile phase, a is the slope, and RM0 is the […].
# human serotonin 5-HT6R = target: T1, human serotonin 5-HT6R (Homo sapiens, UniProt P50406); assay: Radioligand binding assay, 5-HT6R, [3H]-LSD displacement; conditions: human receptor stably expressed in HEK-293 cells; mean of at least two independent experiments; read-out: Ki 5-HT6 [3H]-LSD
# T1 construct: expressed in transfected cells; host or cells: HEK-293
# Protocol: Five selective radioligands were employed (Table 1).
# Radioligand binding assays were used to determine the affinity of the synthesized compounds for human serotonin 5-HT6R, which were stably expressed in HEK-293 cells. […] Each compound was tested in triplicate at 7 to 8 different concentrations (10^−11 to 10^−4 M). The inhibition constants (Ki) were calculated using the Cheng–Prusoff equation [40], and the results are expressed as the mean of at least two independent experiments.
# dopaminergic D2LR = target: T2, dopaminergic D2LR (Homo sapiens, UniProt P14416); assay: Radioligand binding assay, D2LR, [3H]-Raclopride; conditions: human D2L receptor stably expressed in HEK-293 cells; read-out: Ki D2 [3H]-Raclopride
# T2 construct: expressed in transfected cells; host or cells: HEK-293
# 5-HT7bR = target: T3, 5-HT7bR (Homo sapiens, UniProt P34969); assay: Radioligand binding assay, 5-HT7bR, [3H]-5-CT; conditions: human 5-HT7b receptor stably expressed in HEK-293 cells; read-out: Ki 5-HT7 [3H]-5-CT
# T3 construct: expressed in transfected cells; host or cells: HEK-293
# 5-HT1A = target: T4, 5-HT1A (Homo sapiens, UniProt P08908); assay: Radioligand binding assay, 5-HT1A, [3H]-8-OH-DPAT; conditions: human receptor stably expressed in HEK-293 cells
# T4 construct: expressed in transfected cells; host or cells: HEK-293
# T4 sequence (P08908 1-422): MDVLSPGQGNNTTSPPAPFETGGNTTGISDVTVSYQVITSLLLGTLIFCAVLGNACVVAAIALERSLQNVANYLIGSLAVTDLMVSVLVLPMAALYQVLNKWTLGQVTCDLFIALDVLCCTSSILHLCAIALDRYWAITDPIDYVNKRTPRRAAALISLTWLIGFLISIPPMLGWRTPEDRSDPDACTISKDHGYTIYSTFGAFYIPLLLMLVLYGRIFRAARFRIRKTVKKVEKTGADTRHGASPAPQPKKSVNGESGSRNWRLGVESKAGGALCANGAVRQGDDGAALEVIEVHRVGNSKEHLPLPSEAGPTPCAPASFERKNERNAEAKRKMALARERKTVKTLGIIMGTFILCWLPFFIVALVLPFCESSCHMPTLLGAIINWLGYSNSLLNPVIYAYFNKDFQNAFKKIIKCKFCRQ
# 5-HT2A = target: T5, 5-HT2A (Homo sapiens, UniProt P28223); assay: Radioligand binding assay, 5-HT2A, [3H]-Ketanserin; conditions: human receptor stably expressed in HEK-293 cells
# T5 construct: expressed in transfected cells; host or cells: HEK-293
# T5 sequence (P28223 whole entry): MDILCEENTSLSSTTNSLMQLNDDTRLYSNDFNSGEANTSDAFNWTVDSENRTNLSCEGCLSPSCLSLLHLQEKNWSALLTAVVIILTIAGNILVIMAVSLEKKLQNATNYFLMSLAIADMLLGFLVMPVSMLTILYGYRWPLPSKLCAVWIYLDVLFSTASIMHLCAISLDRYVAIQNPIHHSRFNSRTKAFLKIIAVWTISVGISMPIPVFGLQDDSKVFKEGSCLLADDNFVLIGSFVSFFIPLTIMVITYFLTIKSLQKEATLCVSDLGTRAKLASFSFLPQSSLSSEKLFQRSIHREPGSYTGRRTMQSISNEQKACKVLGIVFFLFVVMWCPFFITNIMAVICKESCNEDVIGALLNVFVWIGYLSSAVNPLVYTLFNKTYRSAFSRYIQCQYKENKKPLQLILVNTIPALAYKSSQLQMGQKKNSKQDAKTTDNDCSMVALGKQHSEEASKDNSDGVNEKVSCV
# T2 sequence (P14416 whole entry): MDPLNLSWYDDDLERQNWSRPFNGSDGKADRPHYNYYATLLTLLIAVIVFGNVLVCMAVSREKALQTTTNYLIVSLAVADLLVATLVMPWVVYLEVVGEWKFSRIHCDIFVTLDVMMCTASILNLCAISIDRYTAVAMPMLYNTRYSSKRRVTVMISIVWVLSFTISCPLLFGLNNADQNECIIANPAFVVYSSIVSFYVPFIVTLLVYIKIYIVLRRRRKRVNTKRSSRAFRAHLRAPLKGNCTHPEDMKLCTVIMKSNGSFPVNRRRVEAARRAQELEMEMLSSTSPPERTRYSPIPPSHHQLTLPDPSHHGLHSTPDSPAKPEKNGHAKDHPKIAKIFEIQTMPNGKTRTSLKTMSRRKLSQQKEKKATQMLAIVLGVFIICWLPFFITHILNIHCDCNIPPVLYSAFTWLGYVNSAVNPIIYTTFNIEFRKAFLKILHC
# T3 sequence (P34969 1-432 limits assumed): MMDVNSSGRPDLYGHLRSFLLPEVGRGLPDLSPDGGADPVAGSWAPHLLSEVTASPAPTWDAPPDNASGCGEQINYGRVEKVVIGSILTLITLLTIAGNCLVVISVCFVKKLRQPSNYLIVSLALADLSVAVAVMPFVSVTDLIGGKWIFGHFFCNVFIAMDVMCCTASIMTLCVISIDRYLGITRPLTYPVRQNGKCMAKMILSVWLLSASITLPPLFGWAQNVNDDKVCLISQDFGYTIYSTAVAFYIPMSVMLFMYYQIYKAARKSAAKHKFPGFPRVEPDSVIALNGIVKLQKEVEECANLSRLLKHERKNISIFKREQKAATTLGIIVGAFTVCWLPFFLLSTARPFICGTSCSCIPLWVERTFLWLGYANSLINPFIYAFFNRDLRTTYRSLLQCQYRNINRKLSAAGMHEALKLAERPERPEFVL
# T1 sequence (P50406 whole entry): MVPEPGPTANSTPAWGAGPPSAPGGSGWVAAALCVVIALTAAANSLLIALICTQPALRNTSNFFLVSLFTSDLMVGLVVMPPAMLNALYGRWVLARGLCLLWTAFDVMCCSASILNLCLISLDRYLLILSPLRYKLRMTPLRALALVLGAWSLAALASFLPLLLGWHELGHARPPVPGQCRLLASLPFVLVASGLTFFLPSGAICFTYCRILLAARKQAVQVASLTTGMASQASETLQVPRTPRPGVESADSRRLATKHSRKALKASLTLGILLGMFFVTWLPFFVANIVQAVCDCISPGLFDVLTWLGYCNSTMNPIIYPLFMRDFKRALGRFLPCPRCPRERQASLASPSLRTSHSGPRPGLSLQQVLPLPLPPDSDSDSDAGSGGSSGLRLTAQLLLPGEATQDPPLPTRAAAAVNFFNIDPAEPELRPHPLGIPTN
RM0 (Lipophilicity by RP-TLC),SMILES,Ki (human serotonin 5-HT6R),Ki (dopaminergic D2LR),Ki (5-HT7bR),Ki (5-HT1A),Ki (5-HT2A)
3.14,"CN1CCN(c2nc(N)nc(Cc3cccc4ccccc34)n2)CC1 [Compound 1, reference compound]",–,–,–,–,–
3.25,"CN1CCN(c2nc(N)nc(Cc3cccc(Cl)c3)n2)CC1 [Compound 2, reference compound]",–,–,–,–,–
3.58,"Cc1cccc(Cc2nc(N)nc(N3CCN(C)CC3)n2)c1 [Compound 3, reference compound]",–,–,–,–,–
–,CN1CCN(c2nc(N)nc(CN3C(=O)NC(C)(C)C3=O)n2)CC1 [Compound 4],0.427 µM,22.3 µM,35.8 µM,–,–
3.22,"CN1CCN(c2nc(N)nc(CN3C(=O)N(Cc4ccc(Cl)cc4)C(=O)C3(C)C)n2)CC1 [Compound 5, 3-(4-Chlorobenzyl)-1-((4-amino-6-(4-methylpiperazin-1-yl)-1,3,5-triazin-2-yl)methyl)-5,5-dimethylimidazolidine-2,4-dione]",4.28 µM,5.01 µM,1.62 µM,15.4 µM,–
3.51,"CN1CCN(c2nc(N)nc(CN3C(=O)NC(C)(c4ccc(Cl)cc4)C3=O)n2)CC1 (stereo not drawn) [Compound 7, 3-((4-Amino-6-(4-methylpiperazin-1-yl)-1,3,5-triazin-2-yl)methyl)-5-(4-chlorophenyl)-5-methylimidazolidine-2,4-dione]",< 0.2 µM and 0.176 µM,31.2 µM,0.938 µM,28.1 µM,–
–,"CN1CCN(c2nc(N)nc(CN3C(=O)N(Cc4ccccc4)C(C)(C)C3=O)n2)CC1 [Compound 9, 3-((4-Amino-6-(4-methylpiperazin-1-yl)-1,3,5-triazin-2-yl)methyl)-1-benzyl-5,5-dimethylimidazolidine-2,4-dione]",0.592 µM,8.78 µM,0.35 µM,42.6 µM,1.6 µM
–,"CN1CCN(c2nc(N)nc(CN3C(=O)N(Cc4cccc(Cl)c4)C(C)(C)C3=O)n2)CC1 [Compound 10, 1-(3-Chlorobenzyl)-3-((4-amino-6-(4-methylpiperazin-1-yl)-1,3,5-triazin-2-yl)methyl)-5,5-dimethylimidazolidine-2,4-dione]",0.271 µM,4.63 µM,0.159 µM,13.6 µM,0.328 µM
–,"CN1CCN(c2nc(N)nc(CN3C(=O)N(Cc4cc(Cl)ccc4Cl)C(C)(C)C3=O)n2)CC1 [Compound 11, 1-(2,5-Dichlorobenzyl)-3-((4-amino-6-(4-methylpiperazin-1-yl)-1,3,5-triazin-2-yl)methyl)-5,5-dimethylimidazolidine-2,4-dione]",0.597 µM,2.87 µM,0.279 µM,4.16 µM,0.809 µM
–,"CN1CCN(c2nc(N)nc(CN3C(=O)N(Cc4ccc(Cl)cc4Cl)C(C)(C)C3=O)n2)CC1 [Compound 12, 1-(2,4-Dichlorobenzyl)-3-((4-amino-6-(4-methylpiperazin-1-yl)-1,3,5-triazin-2-yl)methyl)-5,5-dimethylimidazolidine-2,4-dione]",0.205 µM,0.681 µM,1.12 µM,7.69 µM,3.59 µM
